The results in this text go back to patent publication US10654867B2 (Genentech, Inc., priority 2016, dated 2020).

In the experiment the target is T1, estrogen receptor alpha (ESR1) in MCF7 breast cancer cells (Homo sapiens, UniProt P03372).
T1 sequence (P03372 1-595): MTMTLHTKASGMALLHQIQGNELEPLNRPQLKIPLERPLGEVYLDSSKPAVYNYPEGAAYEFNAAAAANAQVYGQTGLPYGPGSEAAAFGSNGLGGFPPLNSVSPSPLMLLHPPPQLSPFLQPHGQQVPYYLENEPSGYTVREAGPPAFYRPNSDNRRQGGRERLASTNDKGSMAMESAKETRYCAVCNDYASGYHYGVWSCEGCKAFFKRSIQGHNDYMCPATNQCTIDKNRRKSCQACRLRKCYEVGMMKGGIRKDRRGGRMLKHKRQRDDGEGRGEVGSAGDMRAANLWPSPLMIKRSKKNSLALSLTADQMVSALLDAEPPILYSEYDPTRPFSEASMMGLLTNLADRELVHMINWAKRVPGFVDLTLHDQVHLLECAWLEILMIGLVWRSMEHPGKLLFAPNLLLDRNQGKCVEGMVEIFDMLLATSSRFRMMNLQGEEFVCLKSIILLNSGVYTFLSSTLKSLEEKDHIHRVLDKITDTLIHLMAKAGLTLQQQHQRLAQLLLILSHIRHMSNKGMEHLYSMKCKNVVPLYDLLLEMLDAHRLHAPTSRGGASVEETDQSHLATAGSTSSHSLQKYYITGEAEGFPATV
The experiment can be described thus: Breast Cancer Cell ERa High Content Fluorescence Imaging Degradation Assay (ER-alpha MCF7 HCS). Also noted: endogenous in cells; host or cells: MCF7 breast cancer cells. The note with it: 4 hours, plateau of the maximal effect, DMSO and fulvestrant define 0% and 100% change in ESR1, Table 1a. Type of experiment: cell-based. The procedure:
All of the exemplary Formula I, II, and III compounds in Tables 1a and 1b were made and characterized by LCMS [M+H]^+ (liquid chromatography mass spectroscopy) with detection of parent ion. All of the exemplary Formula I, II, and III compounds in Tables 1a and 1b were tested for binding to ERa (Estrogen Receptor alpha) and biological activity according to the assays, protocols, and procedures of Examples 901-907. ER-alpha MCF7 HCS Sinf (%) values in Tables 1a and 1b were measured by the Breast Cancer Cell ERa High Content Fluorescence Imaging Degradation Assay of Example 901. ER-alpha MCF7 HCS EC50 (μM) values in Tables 1a and 1b were measured by the in vitro cell proliferation assays described in Examples 902 and 903. The rat uterine wet weight assays of Examples 906 and 907 allow rapid determination of compound antagonist activity in an ER responsive tissue (immature rat uterus) while competing against the native ER ligand estradiol, i.e. antagonist mode (Ashby, J.; et al (1997) Regulatory toxicology and pharmacology: RTP, 25 (3):226-31). Exemplary Formula I, II, and III compounds in Tables 1a and 1b have the following structures, corresponding names (ChemBioDraw, Version 12.0.2, CambridgeSoft Corp., Cambridge Mass.), and biological activity. Where more than one name is associated with a Formula I, II, and III compound or intermediate, the chemical structure shall define the compound.
MCF7 breast cancer cells were seeded on day 1 at a density of 10,000 cells per well in 384 well poly-lysine coated tissue culture plate (Greiner # T-3101-4), in 50 μL/well RPMI (phenol red free), 10% FBS (Charcoal stripped), containing L-glutamine. On day 2, compounds were prepared at 2 compound source concentrations: 100 μM and 1 μM (ultimately to give 2 overlapping titration curves), in a Labcyte low dead volume plate, 10 μL/well, and 10 μL of DMSO in designated wells for backfill, and 5 μM Fulvestrant (control compound) in designated wells. Compounds and controls were dispensed using a Labcyte Echo acoustic dispenser to dispense compounds with a predefined serial dilution (1.8×, 10 point, in duplicate) and appropriate backfill and control compounds (final total volume transferred was 417.5 nL and compound dispense volume ranges from 2.5 nL to 417.5 nL; 0.84% DMSO (v/v) final), ultimately producing a concentration range from 0.05 nM to 835 nM. Cell plates were incubated at 37° C., for 4 hours. Fixation and permeabilization were carried out using a Biotek EL406 plate washer and dispenser as follows. Cells were fixed by addition of 15 μL of 16% paraformaldehyde (Electron Microscopy Sciences #15710-S) directly to the 50 μL cell culture medium in each well using the peristaltic pump 5 μL cassette on a Biotek EL406 (final concentration of formaldehyde was 3.7% w/v). Samples were incubated 30 minutes. Well contents was aspirated and 50 μL/well of Phosphate Buffered Saline (PBS) containing 0.5% w/v bovine serum albumen, 0.5% v/v Triton X-100 (Antibody Dilution Buffer) was added to each well. Samples were incubated for 30 minutes. Well contents were aspirated and washed 3 times with 100 μL/well of PBS. Immunofluorescence staining of estrogen receptor alpha (ESR1) was carried out using a Biotek EL406 plate washer and dispenser as follows. The well supernatant was aspirated from the wells and 25 μL/well of anti-ESR1 mAb (F10) (Santa Cruz sc-8002) diluted 1:1000 in Antibody Dilution Buffer was dispensed. Samples were incubated for 2 hours at room temperature. Samples were washed 4 times with 100 μL/well of PBS. 25 uL (microliters)/well of secondary antibody solution (Alexafluor 488 conjugate anti-mouse IgG (LifeTechnologies # A21202) diluted 1:1000 and Hoechst 33342 1 μg/ml diluted in Antibody Dilution Buffer) were dispensed into each well. Samples were incubated for 2 hours at room temperature. Samples were washed 3 times with 100 μL/well of PBS using a Biotek EL406. Quantitative fluorescence imaging of ESR1 was carried out using a Cellomics Arrayscan V (Thermo). […]

Consider `CC(C)(F)C(=O)N1CCCc2c([nH]c3ccccc23)[C@H]1c1c(F)cc(OCCN2CC(CF)C2)cc1F` [Example 106, (R)-1-(1-(2,6-difluoro-4-(2-(3-(fluoromethyl)azetidin-1-yl)ethoxy)phenyl)-3,4,5,10-tetrahydroazepino[3,4-b]indol-2(1H)-yl)-2-fluoro-2-methylpropan-1-one], for which the “ER-alpha MCF7HCS Sinf” value is given as −35%.
For the molecule `C[C@@H]1Cn2c(cc3ccccc32)[C@@H](c2c(F)cc(OC3CN(CCCF)C3)cc2F)N1CC(C)(C)F` [Example 110, (1R,3R)-1-(2,6-Difluoro-4-((1-(3-fluoropropyl)azetidin-3-yl)oxy)phenyl)-2-(2-fluoro-2-methylpropyl)-3-methyl-1,2,3,4-tetrahydropyrazino[1,2-a]indole], the “ER-alpha MCF7HCS Sinf” value was −100%.
As for `C[C@@H]1Cc2c([nH]c3ccccc23)[C@H]2c3c(F)cc(OCCN4CC(CF)C4)cc3OCC(F)(F)CN21` [Example 112, (10R,16bR)-1,7,7-Trifluoro-3-(2-(3-(fluoromethyl)azetidin-1-yl)ethoxy)-10-methyl-7,8,10,11,16,16b-hexahydro-6H-benzo[2′,3′][1,5]oxazocino[5′,4′:1,2]pyrido[3,4-b]indole], the figure is −50%; as for `C[C@@H]1Cc2c([nH]c3ccccc23)[C@]2(CCc3cc(OCCN4CC(CF)C4)ccc32)N1CC(C)(C)F` [Example 113, (1R,3′R)-2′-(2-fluoro-2-methylpropyl)-5-(2-(3-(fluoromethyl)azetidin-1-yl)ethoxy)-3′-methyl-2,2′,3,3′,4′,9′-hexahydrospiro[indene-1,1′-pyrido[3,4-b]indole]], −94.7%; as for `C[C@@H]1Cc2c([nH]c3ccccc23)[C@]2(CCc3cc(OCCN4CC(CF)C4)ccc32)N1CC(F)(F)F` [Example 114, (1R,3′R)-5-(2-(3-(fluoromethyl)azetidin-1-yl)ethoxy)-3′-methyl-2′-(2,2,2-trifluoroethyl)-2,2′,3,3′,4′,9′-hexahydrospiro [indene-1,1′-pyrido [3,4-b]indole]], −96.6%.
As for `C[C@@H]1Cc2c([nH]c3ccccc23)[C@@]2(CCc3cc(OCCN4CC(CF)C4)ccc32)N1CC(F)(F)F` [Example 115, (1S,3′R)-5-(2-(3-(fluoromethyl)azetidin-1-yl)ethoxy)-3′-methyl-2′-(2,2,2-trifluoroethyl)-2,2′,3,3′,4′,9′-hexahydrospiro [indene-1,1′-pyrido [3,4-b]indole]], the figure is −98%; as for `C[C@@H]1CCc2c([nH]c3ccccc23)[C@@H](c2c(F)cc(OCCN3CC(CF)C3)cc2F)N1CC(C)(C)F` [Example 116, (1R,3R)-1-(2,6-difluoro-4-(2-(3-(fluoromethyl)azetidin-1-yl)ethoxy)phenyl)-2-(2-fluoro-2-methylpropyl)-3-methyl-1,2,3,4,5,10-hexahydroazepino[3,4-b]indole], −93.5%; as for `C[C@@](F)(CO)CN1CCCc2c([nH]c3ccccc23)[C@H]1c1c(F)cc(OCCN2CC(CF)C2)cc1F` [Example 117, (S)-3-((R)-1-(2,6-difluoro-4-(2-(3-(fluoromethyl)azetidin-1-yl)ethoxy)phenyl)-3,4,5,10-tetrahydroazepino[3,4-b]indol-2(1H)-yl)-2-fluoro-2-methylpropan-1-ol], −93.8%.
As for `C[C@](F)(CO)CN1CCCc2c([nH]c3ccccc23)[C@H]1c1c(F)cc(OCCN2CC(CF)C2)cc1F` [Example 118, (R)-3-((R)-1-(2,6-difluoro-4-(2-(3-(fluoromethyl)azetidin-1-yl)ethoxy)phenyl)-3,4,5,10-tetrahydroazepino[3,4-b]indol-2(1H)-yl)-2-fluoro-2-methylpropan-1-ol], the figure is −95.9%.
`CC(F)(CO)CN1CCCc2c([nH]c3ccccc23)[C@@H]1c1c(F)cc(OCCN2CC(CF)C2)cc1F` (stereo partly drawn) [Example 119, 3-((S)-1-(2,6-difluoro-4-(2-(3-(fluoromethyl)azetidin-1-yl)ethoxy)phenyl)-3,4,5,10-tetrahydroazepino[3,4-b]indol-2(1H)-yl)-2-fluoro-2-methylpropan-1-ol]: the “ER-alpha MCF7HCS Sinf” value is listed as −95.6%.
In the case of `C[C@@H]1Cn2c(cc3ccccc32)[C@@H](c2c(F)cc(OC3CN(CCCF)C3)cc2F)N1CC(C)(F)CO` (stereo partly drawn) [Example 122, 3-((1R,3R)-1-(2,6-Difluoro-4-((1-(3-fluoropropyl)azetidin-3-yl)oxy)phenyl)-3-methyl-3,4-dihydropyrazino[1,2-a]indol-2(1H)-yl)-2-fluoro-2-methylpropan-1-ol], the “ER-alpha MCF7HCS Sinf” value is recorded as −97%.
To `C[C@@H]1CCN(CC(C)(C)F)[C@H](c2c(F)cc(OCCN3CC(CF)C3)cc2F)c2[nH]c3ccccc3c21` [Example 123, (1R,5R)-1-(2,6-difluoro-4-(2-(3-(fluoromethyl)azetidin-1-yl)ethoxy)phenyl)-2-(2-fluoro-2-methylpropyl)-5-methyl-1,2,3,4,5,10-hexahydroazepino[3,4-b]indole] belongs −96.9%; to `C[C@H]1CCN(CC(C)(C)F)[C@@H](c2c(F)cc(OCCN3CC(CF)C3)cc2F)c2[nH]c3ccccc3c21` [Example 124, (1S,5S)-1-(2,6-difluoro-4-(2-(3-(fluoromethyl)azetidin-1-yl)ethoxy)phenyl)-2-(2-fluoro-2-methylpropyl)-5-methyl-1,2,3,4,5,10-hexahydroazepino[3,4-b]indole], −75%.
To `C[C@H]1CCN(CC(C)(C)F)[C@H](c2c(F)cc(OCCN3CC(CF)C3)cc2F)c2[nH]c3ccccc3c21` [Example 125, (1R,5S)-1-(2,6-difluoro-4-(2-(3-(fluoromethyl)azetidin-1-yl)ethoxy)phenyl)-2-(2-fluoro-2-methylpropyl)-5-methyl-1,2,3,4,5,10-hexahydroazepino[3,4-b]indole] belongs −101%; to `C[C@@H]1CCN(CC(C)(C)F)[C@@H](c2c(F)cc(OCCN3CC(CF)C3)cc2F)c2[nH]c3ccccc3c21` [Example 126, (1S,5R)-1-(2,6-difluoro-4-(2-(3-(fluoromethyl)azetidin-1-yl)ethoxy)phenyl)-2-(2-fluoro-2-methylpropyl)-5-methyl-1,2,3,4,5,10-hexahydroazepino[3,4-b]indole], −50%.
